Data: patent US11214803B2, “Modulators of YAP1 expression” (Ionis Pharmaceuticals, Inc., priority 2019, dated 2022)
Strand notation (5' to 3'): a small letter for the sugar, then the base; units joined by * are phosphorothioate-linked, units joined directly phosphodiester-linked; [ ] holds rarer units or linkages, { } end groups; capitals alone tell only the bases. k = constrained ethyl (cEt); [5mC] = 5-methylcytosine; d = 2'-deoxy (DNA)

System: Yap1 mRNA
Test: Antisense inhibition of human Yap1 in A-431 cells by cEt gapmers, single dose (Example 2, RTS4814)
Type: cell-based
Summary of the method: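 Yap1 mRNA levels, by real-time RT-PCR (RTS4814) and corrected for total RNA via RIBOGREEN, are given as percent of untreated cells. Gapmers (16-mer, cEt wings, phosphorothioate, 5-methylC) were delivered without transfection at 2,000 nM to A-431 cells for about 48 hours.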

[1] = Table 21, Yap1 mRNA, percent of untreated control, 3-10-3 cEt gapmers targeting SEQ ID NO.: 1 and 2
[2] = Table 32, Yap1 mRNA, percent of untreated control, 3-10-3 cEt gapmers targeting SEQ ID NO.: 1, and 2
[3] = Table 25, Yap1 mRNA as percent of untreated control, 3-10-3 cEt gapmers targeting SEQ ID NO.: 1, and 2
[4] = Table 33, Yap1 mRNA, percent of untreated control, 3-10-3 cEt gapmers targeting SEQ ID NO.: 1, and 2
[5] = Table 6, A-431 cells, 5,000 cells per well, free uptake, 2,000 nM modified oligonucleotide, approx. 48 hours, RTS4814, normalized to RIBOGREEN, Yap1 mRNA relative to untreated control cells
[6] = Table 23, Yap1 mRNA as percent of untreated control, 3-10-3 cEt gapmers, single dose
[7] = Table 24, Yap1 mRNA as percent of untreated control, 3-10-3 cEt gapmers targeting SEQ ID NO.: 1, and 2
[8] = Table 18, A-431 cells, 5,000 cells per well, free uptake, 2,000 nM modified oligonucleotide, approx. 48 hours, RTS4814, normalized to RIBOGREEN, Yap1 mRNA as percent of untreated control
[9] = Yap1 mRNA as percent of untreated control, A-431 cells, 3-10-3 cEt gapmers targeting SEQ ID NO.: 1, and 2, Table 31
[10] = Table 19, A-431 cells, 5,000 cells per well, free uptake, 2,000 nM modified oligonucleotide, approx. 48 hours, RTS4814, normalized to RIBOGREEN, Yap1 mRNA as percent of untreated control
[11] = Yap1 mRNA as percent of untreated control, A-431 cells, 3-10-3 cEt gapmers targeting SEQ ID NO.: 1, and 2, Table 30

For “1076199 (kT*kA*kT*d[5mC]*dA*dA*dA*dA*dG*dT*d[5mC]*d[5mC]*dA*kT*k[5mC]*k[5mC]; antisense) [Compound 1076199]”, the “YAP1 (% UTC)” value [1] was 37 % UTC.

For “1075186 (kA*kA*kA*dT*d[5mC]*dG*dA*dT*dT*dA*dT*dT*d[5mC]*kA*kG*kA; antisense) [compound 1075186]”, the “YAP1 (% UTC)” value [2] was 73 % UTC.

In the case of “1075627 (kA*kT*kA*dA*dG*dA*dT*dA*dG*dT*d[5mC]*dG*dG*kT*kT*k[5mC]; antisense) [Compound 1075627]”, the “YAP1 (% UTC)” value [3] is reported as 19 % UTC.

In the case of “1074515 (kT*kA*kA*d[5mC]*dT*dG*dG*dA*dA*dA*dG*d[5mC]*dA*kG*kG*kG; antisense) [compound 1074515]”, the “YAP1 (% UTC)” value [4] is reported as 9 % UTC.

“1076178 (k[5mC]*k[5mC]*kT*dG*dA*dA*dA*dT*dA*d[5mC]*dA*dG*dG*kT*kG*kT; antisense) [compound 1076178]” was tested, and the “YAP1 (% UTC)” value [2] was 100 % UTC.

In the case of “716384 (kA*kG*kG*dA*d[5mC]*d[5mC]*dT*dG*dA*dA*dG*d[5mC]*d[5mC]*kG*kA*kG; antisense) [Compound 716384]”, the “YAP1 (% UTC)” value [5] is reported as 71 % UTC.

For “1076519 (antisense kA*k[5mC]*kA*d[5mC]*dA*dA*d[5mC]*dA*d[5mC]*dG*dA*d[5mC]*dA*kG*k[5mC]*kA) [Compound 1076519]”, the “YAP1 (% UTC)” value [1] was 31 % UTC.

For “1074407 (antisense kT*kA*kA*dA*dG*dT*dA*dT*d[5mC]*dT*dT*dG*d[5mC]*kT*kG*kG) [Compound 1074407]”, the “YAP1 (% UTC)” value [1] was 6 % UTC.

In the case of “1075977 (kG*kA*kT*dT*dA*dA*dA*dA*dG*dT*d[5mC]*dG*dG*kG*k[5mC]*k[5mC]; antisense) [Compound 1075977]”, the “YAP1 (% UTC)” value [6] is reported as 73 % UTC.

“716423 (kG*k[5mC]*kA*dA*dA*dA*dT*dA*dG*dA*dG*dG*dA*kT*kT*kA; antisense) [Compound 716423]” was tested, and the “YAP1 (% UTC)” value [5] was 43 % UTC.

In the case of “1074218 (antisense kA*kG*kG*dG*d[5mC]*dT*d[5mC]*d[5mC]*dT*dG*d[5mC]*dA*dG*kT*kG*k[5mC]) [Compound 1074218]”, the “YAP1 (% UTC)” value [7] is reported as 70 % UTC.

In the case of “1075562 (kG*kT*kA*dT*dT*dT*dA*dT*dG*dG*d[5mC]*dA*dA*k[5mC]*kA*kT; antisense) [Compound 1075562]”, the “YAP1 (% UTC)” value [7] is reported as 15 % UTC.

“1075460 (antisense kA*kA*kT*dA*dA*d[5mC]*d[5mC]*dA*dA*dG*dG*dA*dT*kA*kG*kT) [Compound 1075460]” was tested, and the “YAP1 (% UTC)” value [8] was 30 % UTC.

“1075633 (antisense k[5mC]*kT*kA*dT*dA*dT*dT*dG*dG*d[5mC]*dT*d[5mC]*d[5mC]*kT*kA*kG) [compound 1075633]” was tested, and the “YAP1 (% UTC)” value [9] was 82 % UTC.

In the case of “1074931 (antisense kG*kA*kG*dA*d[5mC]*dT*dA*dT*dA*d[5mC]*dA*dA*d[5mC]*kA*kG*kG) [compound 1074931]”, the “YAP1 (% UTC)” value [4] is reported as 35 % UTC.

“716357 (k[5mC]*kG*k[5mC]*d[5mC]*d[5mC]*d[5mC]*dG*dG*d[5mC]*dT*d[5mC]*d[5mC]*dA*k[5mC]*kG*kG; antisense) [Compound 716357]” was tested, and the “YAP1 (% UTC)” value [5] was 127 % UTC.

For “1075209 (antisense k[5mC]*kA*kT*d[5mC]*dA*dA*d[5mC]*dA*dA*dT*dG*dG*dT*k[5mC]*kT*kA) [Compound 1075209]”, the “YAP1 (% UTC)” value [6] was 11 % UTC.

“1076209 (k[5mC]*kA*kT*dT*dA*dG*d[5mC]*dA*d[5mC]*dA*d[5mC]*d[5mC]*dT*kT*kT*kT; antisense) [compound 1076209]” was tested, and the “YAP1 (% UTC)” value [9] was 12 % UTC.

“1076202 (kT*k[5mC]*kT*dA*dA*dA*dA*dA*dG*dA*d[5mC]*dA*dG*kG*kG*k[5mC]; antisense) [Compound 1076202]” was tested, and the “YAP1 (% UTC)” value [7] was 32 % UTC.

For “1076074 (k[5mC]*kT*kA*dA*dT*dT*dA*dG*d[5mC]*dT*dT*dT*d[5mC]*kA*kG*k[5mC]; antisense) [Compound 1076074]”, the “YAP1 (% UTC)” value [7] was 92 % UTC.

For “1076137 (k[5mC]*kA*k[5mC]*d[5mC]*dA*dA*d[5mC]*dA*dA*d[5mC]*d[5mC]*dT*d[5mC]*kA*kT*kG; antisense) [Compound 1076137]”, the “YAP1 (% UTC)” value [6] was 45 % UTC.

For “1075716 (kG*k[5mC]*k[5mC]*dG*dA*dA*dA*dT*dA*d[5mC]*dT*d[5mC]*dT*k[5mC]*kA*kT; antisense) [Compound 1075716]”, the “YAP1 (% UTC)” value [8] was 19 % UTC.

With “1075978 (kA*kG*kA*dT*dT*dA*dA*dA*dA*dG*dT*d[5mC]*dG*kG*kG*k[5mC]; antisense) [Compound 1075978]” the “YAP1 (% UTC)” value [7] was 11 % UTC.

In the case of “1076339 (antisense k[5mC]*kA*kG*d[5mC]*dA*dA*dT*dA*d[5mC]*dT*dG*dT*dG*kG*kG*k[5mC]) [compound 1076339]”, the “YAP1 (% UTC)” value [4] is reported as 13 % UTC.

“1074823 (kG*kA*kG*d[5mC]*dA*d[5mC]*dT*d[5mC]*dA*dT*dT*dT*d[5mC]*kT*k[5mC]*kA; antisense) [Compound 1074823]” was tested, and the “YAP1 (% UTC)” value [1] was 77 % UTC.

“1076103 (kG*k[5mC]*kT*dT*dA*dA*d[5mC]*dA*dA*dA*dT*d[5mC]*dA*kG*k[5mC]*k[5mC]; antisense) [Compound 1076103]” was tested, and the “YAP1 (% UTC)” value [1] was 79 % UTC.

“1074601 (antisense k[5mC]*k[5mC]*kA*dG*d[5mC]*dT*dA*dA*d[5mC]*dT*d[5mC]*dA*dA*kA*kA*k[5mC]) [Compound 1074601]” was tested, and the “YAP1 (% UTC)” value [6] was 24 % UTC.

With “1076389 (kA*kT*k[5mC]*dG*dA*dA*dA*dT*dA*dT*dT*d[5mC]*dG*kA*kG*kA; antisense) [Compound 1076389]” the “YAP1 (% UTC)” value [10] was 76 % UTC.

In the case of “1075238 (antisense k[5mC]*kT*kT*dA*dA*dA*d[5mC]*dA*dG*dG*dT*dG*d[5mC]*k[5mC]*kA*kA) [Compound 1075238]”, the “YAP1 (% UTC)” value (Table 20, Yap1 mRNA, percent of untreated control, 3-10-3 cEt gapmers targeting SEQ ID NO.: 1 and 2) is reported as 24 % UTC.

For “1076400 (antisense kG*kT*kT*dA*dA*dA*dA*dG*d[5mC]*d[5mC]*dG*dT*dG*kA*kA*kA) [compound 1076400]”, the “YAP1 (% UTC)” value [11] was 10 % UTC.

For “1074706 (antisense kT*kT*kA*dA*dT*dG*dG*d[5mC]*dA*dG*d[5mC]*dA*d[5mC]*kG*kG*kT) [compound 1074706]”, the “YAP1 (% UTC)” value [2] was 48 % UTC.

For “1076421 (kA*kA*kT*dT*dA*dT*dG*dA*d[5mC]*d[5mC]*dT*d[5mC]*d[5mC]*kA*kT*kG; antisense) [Compound 1076421]”, the “YAP1 (% UTC)” value [10] was 65 % UTC.

With “1075083 (antisense k[5mC]*kA*kA*d[5mC]*dA*dA*d[5mC]*dA*d[5mC]*dT*d[5mC]*d[5mC]*dT*k[5mC]*kT*kT) [Compound 1075083]” the “YAP1 (% UTC)” value [3] was 54 % UTC.

With “1076520 (antisense kA*kA*kT*dT*dA*dT*dA*dT*dG*d[5mC]*dA*dG*d[5mC]*kA*kG*k[5mC]) [Compound 1076520]” the “YAP1 (% UTC)” value (Table 22, Yap1 mRNA as percent of untreated control, 3-10-3 cEt gapmers, single dose) was 21 % UTC.

“1076197 (kT*kA*kT*dT*dA*dT*d[5mC]*dA*dA*dG*dG*dG*dA*kA*kT*kT; antisense) [Compound 1076197]” was tested, and the “YAP1 (% UTC)” value [10] was 94 % UTC.

For “1076274 (kT*kG*kA*dG*dA*dA*dT*dA*dG*dA*dG*d[5mC]*dA*kG*kG*kT; antisense) [compound 1076274]”, the “YAP1 (% UTC)” value [2] was 9 % UTC.

“716390 (kT*k[5mC]*kT*d[5mC]*dT*dG*dG*dT*dT*d[5mC]*dA*dT*dG*kG*k[5mC]*kA; antisense) [Compound 716390]” was tested, and the “YAP1 (% UTC)” value [5] was 66 % UTC.

In the case of “1076485 (antisense kA*kA*kA*d[5mC]*dG*dA*dA*dA*d[5mC]*dG*dG*dG*dA*kA*kA*kT) [Compound 1076485]”, the “YAP1 (% UTC)” value [10] is reported as 55 % UTC.

For “1074245 (antisense kA*kG*kA*dA*dG*dT*dA*dT*d[5mC]*dT*d[5mC]*dT*dG*kA*k[5mC]*k[5mC]) [Compound 1074245]”, the “YAP1 (% UTC)” value [10] was 5 % UTC.

For “716519 (antisense kG*kT*kT*dT*dA*dT*dA*dA*dA*dG*dT*dT*d[5mC]*kT*k[5mC]*kT) [Compound 716519]”, the “YAP1 (% UTC)” value [5] was 57 % UTC.

With “1075408 (antisense k[5mC]*kT*kA*dA*dA*dA*dT*dG*dG*d[5mC]*dA*dT*dA*kA*kG*kG) [compound 1075408]” the “YAP1 (% UTC)” value [11] was 23 % UTC.

In the case of “716364 (k[5mC]*kG*k[5mC]*d[5mC]*dG*d[5mC]*dG*dG*dG*dT*dG*d[5mC]*d[5mC]*kG*kG*kT; antisense) [Compound 716364]”, the “YAP1 (% UTC)” value (A-431 cells, 5,000 cells per well, free uptake, 2,000 nM modified oligonucleotide, approx. 48 hours, RTS4814, normalized to RIBOGREEN, Table 4, asterisk (*) = targets amplicon region of primer probe set) is reported as 110 % UTC.

“716492 (kA*kA*kA*d[5mC]*dA*d[5mC]*dA*dG*dA*dG*dG*dT*dG*k[5mC]*kT*kA; antisense) [Compound 716492]” was tested, and the “YAP1 (% UTC)” value [5] was 72 % UTC.

With “1076490 (antisense k[5mC]*k[5mC]*kA*dA*dA*dA*dT*dA*dG*dG*dT*dG*dA*kG*kT*k[5mC]) [Compound 1076490]” the “YAP1 (% UTC)” value [7] was 2 % UTC.

With “716377 (kG*kG*kT*dA*dT*d[5mC]*dT*d[5mC]*dA*dA*dA*dA*dG*kA*kA*kG; antisense) [Compound 716377]” the “YAP1 (% UTC)” value (Table 5, A-431 cells, 5,000 cells per well, free uptake, 2,000 nM modified oligonucleotide, approx. 48 hours, RTS4814, normalized to RIBOGREEN, Yap1 mRNA relative to untreated control cells) was 76 % UTC.
